# Results as given in patent US20210179578A1, “OX1 ANTAGONISTS” (Heptares Therapeutics Limited, priority 2017, published 2021).
# Biological target: T1, human OX2 receptor (Homo sapiens, UniProt O43614)
# T1 sequence (O43614 1-444): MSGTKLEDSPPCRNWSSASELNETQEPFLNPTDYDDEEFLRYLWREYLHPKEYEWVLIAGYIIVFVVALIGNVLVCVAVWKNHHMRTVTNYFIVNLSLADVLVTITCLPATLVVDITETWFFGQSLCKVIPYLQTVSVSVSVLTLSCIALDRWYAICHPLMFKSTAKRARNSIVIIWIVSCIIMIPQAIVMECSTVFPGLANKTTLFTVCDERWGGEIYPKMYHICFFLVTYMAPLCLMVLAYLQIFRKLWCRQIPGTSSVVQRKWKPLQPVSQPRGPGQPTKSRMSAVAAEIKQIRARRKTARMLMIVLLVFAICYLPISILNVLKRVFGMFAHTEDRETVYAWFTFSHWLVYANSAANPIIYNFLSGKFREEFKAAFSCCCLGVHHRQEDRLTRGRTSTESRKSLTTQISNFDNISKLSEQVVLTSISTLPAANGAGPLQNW
# Assay: [3H]-radioligand binding assay, OX2
# Parameters: made in house; host or cells: SF21 insect cells (baculovirus; P0 virus made in SF9)
# Conditions: [3H]-radioligand binding, human OX2 membranes; read-out: pKi average OX2 (converted)
# Excerpt: Cloning, Baculovirus generation, large-scale infection of SF21 cells and membrane preparation. Human OX1 or OX2 receptor were cloned into Invitrogen's (ThermoFisher Scientific, UK) Bac-to-Bac Baculovirus Expression System. P0 baculovirus was generated by transfecting SF9 cells with bacmid DNA using Cellfectin® II transfection reagent (ThermoFisher Scientific, UK, Catalog number 10362-100). Following P0 generation P1 virus was then generated ready for large scale infection and membrane preparation. SF21 cells were grown in expression medium ESF921 (Expression Systems, USA, catalog number 96-001-01) supplemented with 10% heat-inactivated FBS and 1% Pen/Strep and were infected at a cell density of 2.5×10^6 cells/mL and a multiplicity of infection of 1.0 for both human OX1R and OX2R. Incubation was carried out at over 48 h in a shaking incubator set at 27° C. The cell culture was then centrifuged at 2,500 rcf for 10 min at 4° C. The pellets were resuspended in cold PBS supplemented with Roche's Complete EDTA-free protease inhibitor cocktail tablets (Roche Applied Sciences, catalog number 05056489001), 1 mM PMSF and 1 mM EDTA. The resuspended cell paste was then centrifuged at 3,273 rcf for 12 min at 4° C. The supernatant was discarded and the pellet frozen at −80° C. The cell pellet from a 4 L culture was resuspended in buffer containing 50 mM HEPES pH 7.5, 150 mM NaCl, 8 Roche EDTA-Free protease inhibitor cocktail tablets and 1 mM PMSF. The suspension was left stirring at rt for 1 h and then homogenised for 90 s at 9,500 rpm using a VDI 25 (VWR, USA) homogeniser. The cells were then lysed using a Microfluidiser processor M-110L Pneumatic (Microfluidics, USA) at 60 PSI and membranes collected by ultracentrifugation at 204.7 k×g for 1 h. The supernatant was discarded and the pellet was resuspended and homogenised in 90 s at 9,500 rpm in 50 mL (25 mL for each 2 L culture) of buffer containing 50 mM Hepes pH 7.5, 150 mM NaCl, 3 Roche EDTA-free protease inhibitor cocktail tablets and 1 mM PMSF. The resulting membranes were then stored at −80° C.
# [^3H]-radioligand binding assay. After thawing, membrane homogenates were resuspended in the binding buffer (8.5 mM HEPES, pH 7.4, 1.3 mM CaCl2, 1.2 mM MgSO4, 118 mM NaCl, 4.7 mM KCl, 4 mM NaHCO3, 1.2 mM KH2PO4, 11 mM glucose) to a final assay concentration of 6.4 μg (OX1) or 1.4 μg (OX2) protein per well. Saturation isotherms were determined by the addition of various concentrations (0-30 nM) of [^3H]-4-(2,6-difluoro-4-methoxybenzyl)-2-(5,6-dimethoxypyridin-3-yl)-2H-1,2,4-benzothiadiazin-3(4H)-one 1,1-dioxide (Christopher et al, MedChemComm., 2015, 6, 947-955) in a total reaction volume of 250 μL for 90 min at rt. At the end of the incubation, membranes were filtered onto a 96-well GF/B filter pre-incubated with 0.5% polyethylenimine, with a Tomtec cell harvester and washed 5 times with 0.5 mL distilled water. Non-specific binding (NSB) was measured in the presence of 3.33 μM [4-(5-chloro-1,3-benzoxazol-2-yl)-7-methyl-1,4-diazepan-1-yl][5-methyl-2-(2H-1,2,3-triazol-2-yl)phenyl]methanone (Wertz et al, Angew. Chem. Int. Ed., 2011, 50, 11511-11515). Radioactivity on the filter was counted (1 min) on a Microbeta radiometric plate counter (Perkin Elmer) after addition of 50 μL of scintillation fluid (LabLogic: Part #SG-BXX-14). […] IC50 values were derived from the inhibition curve and the equilibrium dissociation constant (Ki) values were calculated using the Cheng-Prusoff equation.
row,SMILES,Ki [nM]
1,"COc1ncc(C2CCc3c(F)cccc3N(Cc3cc(C#N)ccc3F)C2=O)cc1C(C)(F)F (single isomer, unassigned) [Example 13, 3-({3-[5-(1,1-difluoroethyl)-6-methoxypyridin-3-yl]-6-fluoro-2-oxo-2,3,4,5-tetrahydro-1H-1-benzazepin-1-yl}methyl)-4-fluorobenzonitrile]",> 158
2,"Cc1ccc(N2CCc3c(F)cccc3N(Cc3c(F)cc(Br)cc3F)C2=O)cc1C(C)(F)F [Example 1, 1-(4-bromo-2,6-difluorobenzyl)-3-[3-(1,1-difluoroethyl)-4-methylphenyl]-6-fluoro-1,3,4,5-tetrahydro-2H-1,3-benzodiazepin-2-one]",200
3,"COc1nc(OC)c(C(C)(F)F)cc1N1CCc2c(F)cccc2N(Cc2c(F)cc(Br)cc2F)C1=O [Example 23, 1-(4-bromo-2,6-difluorobenzyl)-3-[5-(1,1-difluoroethyl)-2,6-dimethoxypyridin-3-yl]-6-fluoro-1,3,4,5-tetrahydro-2H-1,3-benzodiazepin-2-one]",> 126
4,"Cc1cc(C)c(S(C)(=O)=O)cc1N1CCc2ccccc2N(Cc2c(F)cc(Br)cc2F)C1=O [Example 29, 1-(4-bromo-2,6-difluorobenzyl)-3-[2,4-dimethyl-5-(methylsulfonyl)phenyl]-1,3,4,5-tetrahydro-2H-1,3-benzodiazepin-2-one]",100
5,"CCCc1cc(F)c(CN2C(=O)N(c3ccc(C)c(S(C)(=O)=O)c3)CCc3c(F)cccc32)c(F)c1 [Example 28, 1-(2,6-difluoro-4-propylbenzyl)-6-fluoro-3-[4-methyl-3-(methylsulfonyl)phenyl]-1,3,4,5-tetrahydro-2H-1,3-benzodiazepin-2-one]",> 316
6,"COc1ncc(C2CCc3c(F)cccc3N(Cc3c(F)cc(Br)cc3F)C2=O)cc1C(C)(F)F (single isomer, unassigned) [Example 12, 1-(4-bromo-2,6-difluorobenzyl)-3-[5-(1,1-difluoroethyl)-6-methoxypyridin-3-yl]-6-fluoro-1,3,4,5-tetrahydro-2H-1-benzazepin-2-one]",> 398
7,"COc1cc(F)c(CN2C(=O)N(c3cnc(OC)c(S(C)(=O)=O)c3)CCc3c(F)cccc32)c(F)c1F [Example 15, 6-fluoro-3-[6-methoxy-5-(methylsulfonyl)pyridin-3-yl]-1-(2,3,6-trifluoro-4-methoxybenzyl)-1,3,4,5-tetrahydro-2H-1,3-benzodiazepin-2-one]",> 251
8,"CSc1cc(N2CCc3c(F)cccc3N(Cc3c(F)cc(Br)cc3F)C2=O)ccc1C [Example 26, 1-(4-bromo-2,6-difluorobenzyl)-6-fluoro-3-[4-methyl-3-(methylsulfanyl)phenyl]-1,3,4,5-tetrahydro-2H-1,3-benzodiazepin-2-one]",100
9,"COc1ncc(N2CCc3c(F)cccc3N(Cc3c(F)cc(Br)cc3F)C2=O)cc1S(C)(=O)=O [Example 14, 1-(4-bromo-2,6-difluorobenzyl)-6-fluoro-3-[6-methoxy-5-(methylsulfonyl)pyridin-3-yl]-1,3,4,5-tetrahydro-2H-1,3-benzodiazepin-2-one]",> 251
10,"COc1ccc(CN2C(=O)N(c3cnc(OC)c(C(C)(F)F)c3)CCc3c(F)cccc32)c(F)c1 [Example 4, 3-[5-(1,1-difluoroethyl)-6-methoxypyridin-3-yl]-6-fluoro-1-(2-fluoro-4-methoxybenzyl)-1,3,4,5-tetrahydro-2H-1,3-benzodiazepin-2-one]",63.1
11,"[2H]C([2H])([2H])Oc1cc(F)c(CN2C(=O)N(c3cnc(OC)c(C(C)(F)F)c3)CCc3c(F)cccc32)c(F)c1 [Example 6, 3-[5-(1,1-difluoroethyl)-6-methoxypyridin-3-yl]-1-{2,6-difluoro-4-[(^2H3)methyloxy]benzyl}-6-fluoro-1,3,4,5-tetrahydro-2H-1,3-benzodiazepin-2-one]",100
12,"COc1ncc(C2CCc3c(F)cccc3N(Cc3c(F)cc(Br)cc3F)C2=O)cc1S(C)(=O)=O (racemic) [Example 19, 1-(4-bromo-2,6-difluorobenzyl)-6-fluoro-3-[6-methoxy-5-(methylsulfonyl)pyridin-3-yl]-1,3,4,5-tetrahydro-2H-1-benzazepin-2-one]",> 251

# More lines, now with the values ahead:
row,Ki [nM],SMILES
1,> 251,"COCc1cc(F)c(CN2C(=O)N(c3cnc(C)c(C(C)(F)F)c3)CCc3c(F)cccc32)c(F)c1 [Example 33, 3-[5-(1,1-difluoroethyl)-6-methylpyridin-3-yl]-1-[2,6-difluoro-4-(methoxymethyl)benzyl]-6-fluoro-1,3,4,5-tetrahydro-2H-1,3-benzodiazepin-2-one]"
2,> 501,"Cc1ncc(C2CCc3c(F)cccc3N(Cc3c(F)cc(Br)cc3F)C2=O)cc1S(C)(=O)=O (single isomer, unassigned) [Example 39, 1-(4-bromo-2,6-difluorobenzyl)-6-fluoro-3-[6-methyl-5-(methylsulfonyl)pyridin-3-yl]-1,3,4,5-tetrahydro-2H-1-benzazepin-2-one]"
3,> 316,"Cc1ncc(C2CCc3c(F)cccc3N(Cc3c(F)cc(Br)cc3F)C2=O)cc1S(C)(=O)=O (single isomer, unassigned) [Example 38, 1-(4-bromo-2,6-difluorobenzyl)-6-fluoro-3-[6-methyl-5-(methylsulfonyl)pyridin-3-yl]-1,3,4,5-tetrahydro-2H-1-benzazepin-2-one]"
4,50.1,"Cc1ncc(N2CCc3c(F)cccc3N(Cc3c(F)cc(Br)cc3F)C2=O)cc1C(C)(F)F [Example 32, 1-(4-bromo-2,6-difluorobenzyl)-3-[5-(1,1-difluoroethyl)-6-methylpyridin-3-yl]-6-fluoro-1,3,4,5-tetrahydro-2H-1,3-benzodiazepin-2-one]"
5,200,"Cc1cc(C)c(S(C)(=O)=O)cc1N1CCc2c(F)cccc2N(Cc2c(F)cc(Br)cc2F)C1=O [Example 31, 1-(4-bromo-2,6-difluorobenzyl)-3-[2,4-dimethyl-5-(methylsulfonyl)phenyl]-6-fluoro-1,3,4,5-tetrahydro-2H-1,3-benzodiazepin-2-one]"
6,> 251,"CCCc1cc(F)c(CN2C(=O)N(c3cnc(C)c(C(C)(F)F)c3)CCc3c(F)cccc32)c(F)c1 [Example 34, 3-[5-(1,1-difluoroethyl)-6-methylpyridin-3-yl]-1-(2,6-difluoro-4-propylbenzyl)-6-fluoro-1,3,4,5-tetrahydro-2H-1,3-benzodiazepin-2-one]"
7,> 126,"Cc1ncc(C2CCc3c(F)cccc3N(Cc3c(F)cc(Br)cc3F)C2=O)cc1C(C)(F)F (single isomer, unassigned) [Example 35, 1-(4-bromo-2,6-difluorobenzyl)-3-[5-(1,1-difluoroethyl)-6-methylpyridin-3-yl]-6-fluoro-1,3,4,5-tetrahydro-2H-1-benzazepin-2-one]"
